Experimental data published in US20250282895A1, “PHARMACEUTICAL COMPOSITIONS OF CHEMOTHERAPEUTIC AGENTS BASED ON BETA-S[…]-AMINO ACID DERIVATIVES” (priority 2021, published 2025).
Structures can show the parent of a compound that is named as a salt.

Assay: Comparative stability, Formulation 3 (based on Evomela, SBE6.5-β-CD)
Assay type: physicochemical
Description: The stability of Compound (1c) either as the HCl salt or as the free base was compared to the stability of melphalan HCl and/or bendamustine HCl in various pharmaceutical formulations and at different concentrations and at temperatures of 0° C. or 25° C.
The stability of the compounds in the pharmaceutical formulations was determined at concentrations within the range from 0.4 mg/mL to 0.5 mg/mL, from 0.9 mg/mL to 1.1 mg/mL, and from 1.8 mg/mL to 2.1 mg/mL.
The amount of the active pharmaceutical ingredient (API) (Compound (1c), melphalan or bendamustine) in the pharmaceutical formulations at different times during storage was determined using HPLC/UV as described in detail for Example 4 and Example 5.
Evomela® is an injectable formulation of melphalan hydrochloride, 4-[bis(2-chloroethyl)amino]-L-phenylalanine hydrochloride, approved by the FDA. Evomela® is supplied as a sterile white to off-white lyophilized powder in a single-dose vial for intravenous use. Each vial containing 50 mg melphalan free base equivalent to 56 mg melphalan hydrochloride and 2,700 mg betadex sulfobutyl ether (SBE6.5-β-CD; sulfobutyl ether β-cyclodextrin sodium) sodium, NF. Normal saline solution (0.9% Sodium Chloride Injection, USP) (8.6 mL as directed) is used to reconstitute Evomela® to a total of 10 mL having a 5 mg/mL nominal concentration of melphalan. The required volume of Evomela® needed for a patient dose is withdrawn from the vial(s) and added to the appropriate volume of 0.9% Sodium Chloride Injection, USP, to a final nominal concentration of 0.45 mg/mL of melphalan. This solution is then infused via an injection port or central venous catheter.
A series of 12 mL glass vials each containing 5.5 mg (0.0165 mmol of Compound (1c) free base and 270 mg of SBE6.5-β-CD, Captisol®) were prepared as described in Example 4.
The cyclodextrin derivative/Compound (1c) free base guest-host inclusion complex was reconstituted by dissolving the guest-host inclusion complex in 0.86 mL of 0.9% saline to provide 1.0 mL of a solution having a nominal concentration of 5.5 mg/mL of Compound (1c) free base.
(§1) A 1.0 mL aliquot of this solution was diluted with 10.0 mL of 0.9% saline, and the pH adjusted with 5 μL of a saturated aqueous NaHCO3 solution to provide 11.0 mL of a clear, colorless solution having a nominal concentration of 0.50 mg/mL of Compound (1c) from Compound (1c) free base and a pH from 5.8 to 6.1.
as §1, with “4.5” for “10.0”, “5.5” for “11.0”, “1.0” for “0.50”, “of about” for “from 5.8 to”
as §1, with “1.75” for “10.0”, “2.75” for “11.0”, “2.0” for “0.50”, “of about” for “from 5.8 to”
A series of 12 mL glass vials each containing 6.1 mg (0.0165 mmol of Compound (1c) mono-hydrochloride salt (corresponding to 5.5 mg of Compound (1c) free base) and 270 mg of SBE6.5-β-CD, Captisol®) were prepared as described in Example 5.
The cyclodextrin derivative/Compound (1c) mono-HCl salt guest-host inclusion complex was reconstituted by dissolving the guest-host inclusion complex in 0.86 mL of 0.9% saline to provide 1.0 mL of a solution having a nominal concentration of 6.1 mg/mL of Compound (1c) mono-HCl salt (corresponding to a nominal concentration of 5.5 mg/mL of the Compound (1c) free base).
as §1, with “0.5” for “1.0”, “5.0” for “10.0”, “5.5” for “11.0”, “mono-hydrochloride” for “free base”, “5.3” for “5.8”, “5.5. […]” for “6.1.”

[1] = Formulation 3, 0° C., 0.5 hours, 0.4-0.5 mg/mL, pH 5.8-6.1 (melphalan), pH 5-6 (Compound (1c)•HCl)
[2] = Formulation 3, 0° C., 2.0 hours, 0.4-0.5 mg/mL, pH 5.8-6.1 (melphalan), pH 5-6 (Compound (1c)•HCl)

Structure (SMILES)	% API [1]	% API (Formulation 3, 0° C., 0.5 hours, 0.9-1.1 mg/mL, pH 5-6)	% API (Formulation 3, 0° C., 0.5 hours, 1.8-2.1 mg/mL, pH 5-6)	% API [2]	% API (Formulation 3, 0° C., 2.0 hours, 0.9-1.1 mg/mL, pH 5-6)	% API (Formulation 3, 0° C., 2.0 hours, 1.8-2.1 mg/mL, pH 5-6)	% API (Formulation 3, 25° C., 0.5 hours, 0.4-0.5 mg/mL, pH 5.8-6.1 (melphalan), pH 5-6 (Compound (1c)•HCl), mono hydrochloride salt)	% API (Formulation 3, 25° C., 0.5 hours, 0.9-1.1 mg/mL, pH 5-6 (Compound (1c)•HCl), mono hydrochloride salt)	% API (Formulation 3, 25° C., 0.5 hours, 1.8-2.1 mg/mL, pH 5-6 (Compound (1c)•HCl))	% API (Formulation 3, 25° C., 2.0 hours, 0.4-0.5 mg/mL, pH 5.8-6.1 (melphalan), pH 5-6 (Compound (1c)•HCl), mono hydrochloride salt)	% API (Formulation 3, 25° C., 2.0 hours, 0.9-1.1 mg/mL, pH 5-6 (Compound (1c)•HCl), mono hydrochloride salt)	% API (Formulation 3, 25° C., 2.0 hours, 1.8-2.1 mg/mL, pH 5-6 (Compound (1c)•HCl), mono hydrochloride salt)	% API (Formulation 3, 25° C., 0.5 hours, 0.4-0.5 mg/mL, pH 5.8-6.1 (melphalan), pH 5-6 (Compound (1c)•HCl))	% API (Formulation 3, 25° C., 2.0 hours, 0.4-0.5 mg/mL, pH 5.8-6.1 (melphalan), pH 5-6 (Compound (1c)•HCl))
Cc1ccc(N(CCCl)CCCl)cc1C[C@H](N)CC(=O)O [Compound (1c)•HCl, (S)-3-amino-4-(5-(bis(2-chloroethyl)amino)-2-methylphenyl) butanoic acid mono hydrochloride salt]	97%	97%	100%	97%	91%	99%	97%	97%	100%	97%	91%	99%		
Cl.N[C@@H](Cc1ccc(N(CCCl)CCCl)cc1)C(=O)O [Melphalan•HCl, 4-[bis(2-chloroethyl)amino]-L-phenylalanine hydrochloride, reference compound]	97%			92%									97%	92%
